Entries after “also recorded” stand apart in the source; their conditions may differ.
What was measured:
[1] = test system: Male Sprague-Dawley rats; experiment: Forced swim test in rats; type: in vivo, rat
How it was run: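 Male Sprague-Dawley rats got a 15 min pretest swim, then a 5-minute test 24 h later. Immobility (floating, only head-keeping movements) and swimming scored as total counts per 5-min session; ANOVA with Tukey post-hoc test.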

[2] = test system: mice; experiment: Locomotor activity in motility chamber, mice; type: in vivo, mouse; conditions: doses that exhibited positive effects in the TST, FIG. 11
[3] = target: T1, mouse NET (Mus musculus, UniProt O55192); experiment: Competition binding against [3H]nisoxetine, mouse hippocampus tissue; conditions: mouse brain tissue (hippocampus), FIG. 10F vs Table 2
T1 construct: from tissue; host or cells: mouse hippocampus
Procedure: (§1) FIGS. 10A-D contain graphs plotting activity levels (counts/6 minutes) for mice treated with the indicated compound at the indicated amount. […] Each group of mice included between three and seven mice. FIGS. 10F is a line graph plotting the competition binding of the indicated compound against [^3H]nisoxetine for mouse hippocampus tissue. FIGS. 10G is a line graph plotting the competition binding of the indicated compound against [^3H]citalopram for mouse cortex tissue. FIG. 10H is a bar graph plotting the duration of immobility (seconds) during a tail suspension test of mice intraperitoneally (ip) or per os (po; orally) treated with 5 mg/kg of the indicated compound. […] Each group of mice included between seven and nine mice.

[4] = target: T2, mouse SERT (Mus musculus, UniProt Q60857); experiment: Competition binding against [3H]citalopram, mouse cortex tissue; conditions: mouse brain tissue (cortex), FIG. 10G vs Table 2
T2 construct: from tissue; host or cells: mouse cortex
Procedure: as §1

T1 sequence (O55192 whole entry): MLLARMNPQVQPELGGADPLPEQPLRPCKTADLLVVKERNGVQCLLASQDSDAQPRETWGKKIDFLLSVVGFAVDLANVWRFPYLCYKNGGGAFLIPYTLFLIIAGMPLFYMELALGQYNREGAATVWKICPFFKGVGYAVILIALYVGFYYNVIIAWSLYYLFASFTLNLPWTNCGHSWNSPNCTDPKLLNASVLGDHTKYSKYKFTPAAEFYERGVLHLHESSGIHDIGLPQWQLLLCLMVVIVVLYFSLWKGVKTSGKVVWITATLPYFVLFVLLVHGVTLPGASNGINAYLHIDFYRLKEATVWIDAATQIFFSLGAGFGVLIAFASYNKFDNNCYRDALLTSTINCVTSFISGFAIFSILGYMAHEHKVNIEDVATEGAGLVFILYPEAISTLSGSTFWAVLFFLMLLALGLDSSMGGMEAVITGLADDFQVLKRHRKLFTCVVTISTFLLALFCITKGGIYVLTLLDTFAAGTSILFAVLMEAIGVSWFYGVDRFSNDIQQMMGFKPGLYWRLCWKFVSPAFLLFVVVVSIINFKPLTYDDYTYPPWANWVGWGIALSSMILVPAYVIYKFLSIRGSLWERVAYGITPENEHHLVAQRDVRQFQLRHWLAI
T2 sequence (Q60857 whole entry): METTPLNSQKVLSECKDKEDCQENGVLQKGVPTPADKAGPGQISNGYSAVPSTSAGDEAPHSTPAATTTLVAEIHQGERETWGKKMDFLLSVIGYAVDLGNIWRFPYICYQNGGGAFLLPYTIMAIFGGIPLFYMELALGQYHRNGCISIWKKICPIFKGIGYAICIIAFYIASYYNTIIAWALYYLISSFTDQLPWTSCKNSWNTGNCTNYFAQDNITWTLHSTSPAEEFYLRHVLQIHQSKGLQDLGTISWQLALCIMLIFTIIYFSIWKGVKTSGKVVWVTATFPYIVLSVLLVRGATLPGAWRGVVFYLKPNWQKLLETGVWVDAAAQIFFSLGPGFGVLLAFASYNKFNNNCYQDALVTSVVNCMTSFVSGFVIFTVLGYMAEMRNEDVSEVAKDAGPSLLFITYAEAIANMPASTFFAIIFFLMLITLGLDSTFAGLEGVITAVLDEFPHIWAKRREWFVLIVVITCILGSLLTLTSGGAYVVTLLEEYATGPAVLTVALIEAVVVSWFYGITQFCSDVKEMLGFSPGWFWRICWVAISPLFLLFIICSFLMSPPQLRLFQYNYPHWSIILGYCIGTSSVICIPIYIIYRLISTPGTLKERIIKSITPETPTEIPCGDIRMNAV

Row | SMILES | Antidepressant activity in forced swim test compared with imipramine (15 mg/kg IP) ([1]; 5 mg/kg IP, FIG. 12A) | Effect on locomotor activity [2] | Immobility in forced swim test vs saline ([1]; 5 mg/kg IP) | Swimming in forced swim test vs saline ([1]; 5 mg/kg IP) | other results
1 | CNC[C@H](c1ccc2ccccc2c1)[C@@H](F)c1ccccc1 [MCJ001-F-RS, (2S,3R)-3-fluoro-N-methyl-2-(naphthalen-2-yl)-3-phenylpropan-1-amine] | antidepressant activity that was similar to that observed in rats treated with the positive control | Only d-amphetamine caused a significant effect on locomotor activity |  |  | Immobility in forced swim test, 5 mg/kg IP vs 5 mg/kg PO of the same compound [1]: statistically (P<0.02) more swimming and less immobility; Swimming in forced swim test, 5 mg/kg IP vs 5 mg/kg PO of the same compound [1]: statistically (P<0.02) more swimming and less immobility; Climbing in forced swim test vs saline ([1]; 5 mg/kg IP): statistically (P<0.02) more swimming and climbing; Immobility in forced swim test vs saline ([1]; 5 mg/kg IP, 5 mg/kg): statistically (P<0.04) less immobility; also recorded: statistically (P<0.02) less immobility; Swimming in forced swim test vs saline ([1]; 5 mg/kg IP, 5 mg/kg): statistically (P<0.04) more swimming behavior; also recorded: statistically (P<0.02) more swimming and climbing; Immobility in forced swim test vs imipramine (15 mg/kg IP) ([1]; 5 mg/kg IP, FIG. 12A): statistically (P<0.04) less immobility than rats treated with imipramine; Climbing in forced swim test vs saline ([1]; 5 mg/kg PO): statistically (P<0.02) more swimming and climbing; Immobility in forced swim test vs saline ([1]; 5 mg/kg PO): statistically (P<0.02) less immobility; Swimming in forced swim test vs saline ([1]; 5 mg/kg PO): statistically (P<0.02) more swimming and climbing
2 | CNC[C@@H](c1ccc2ccccc2c1)[C@H](F)c1ccccc1 [MCJ001-F-SR, (2R,3S)-3-fluoro-N-methyl-2-(naphthalen-2-yl)-3-phenylpropan-1-amine] | antidepressant activity that was similar to that observed in rats treated with the positive control |  | statistically (P<0.04) less immobility | statistically (P<0.04) more swimming behavior | 
3 | CNC[C@H](c1ccc2ccccc2c1)[C@@H](N=[N+]=[N-])c1ccccc1 [MCJ001-N3-RS, (2S,3R)-3-azido-N-methyl-2-(naphthalen-2-yl)-3-phenylpropan-1-amine] | antidepressant activity that was similar to that observed in rats treated with the positive control |  | statistically (P<0.04) less immobility | statistically (P<0.04) more swimming behavior | 
4 | CNC[C@H](c1ccc2ccccc2c1)[C@H](OC)c1ccccc1 [MCJ001-OMe-SS, (2S,3S)-3-methoxy-N-methyl-2-(naphthalen-2-yl)-3-phenylpropan-1-amine] | antidepressant activity that was similar to that observed in rats treated with the positive control | Only d-amphetamine caused a significant effect on locomotor activity | statistically (P<0.04) less immobility | statistically (P<0.04) more swimming behavior | 
5 | CN(C)C[C@H](c1ccc2ccccc2c1)[C@H](N)c1ccccc1 [MCJ002-NH2-SS, (2S,3S)-N1,N1-dimethyl-2-(naphthalen-2-yl)-3-phenylpropane-1,3-diamine] | antidepressant activity that was similar to that observed in rats treated with the positive control |  | statistically (P<0.04) less immobility | statistically (P<0.04) more swimming behavior | Potency at mouse NET as compared to potency at human NET [3]: 10 fold weaker; Potency at mouse SERT as compared to human SERT [4]: about the same potency at mouse SERT

From patent US8440724B2, “Inhibiting neurotransmitter reuptake” (Mayo Foundation for Medical Education and Research, priority 2008, dated 2013)
